# Reference: publication PMC9543606, “Structural and ITC Characterization of Peptide‐Protein Binding: Thermodynamic Consequences of Cyclization Constraints, a Case Study on Vascular Endothelial Growth Factor Ligands” (Chemistry (Weinheim an Der Bergstrasse, Germany), 2022)
# Several values for one entry are separate records, joined by “and”; a condition that tells them apart may be missing. Equal entries are not always repeated. Where two headings read alike, the source gives them in different places. Where a SMILES comes first, the peptide text is derived from it. Bridges are numbered along the chain shown (N, C = ends). [ ]: non-standard residue; d: D form. Nle = CCCC[C@H](N)C(=O)O
# Biological target: VEGF (Homo sapiens, UniProt P15692)
# Sequence (P15692 219-313): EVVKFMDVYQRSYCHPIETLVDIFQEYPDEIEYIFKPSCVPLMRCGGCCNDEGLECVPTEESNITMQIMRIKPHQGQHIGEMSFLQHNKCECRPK
# Conditions: for Δ(ΔH 20 °C) / Δ(‐TΔS) 20 °C / Δ(ΔH 37 °C) / Δ(‐TΔS) 37 °C / Δ(ΔCp) / Δ(ΔG 20 °C) / Δ(ΔG 37 °C): ± at P=95 %; for ΔG / −TΔS / ΔH / ΔCp: ITC, 95 % confidence interval in brackets; for ΔG / −TΔS / ΔH: 50 mM HEPES/NaOH, 150 mM NaCl, pH 7.5, first binding site; for ΔG: calculated from Kd (Eq. 1); for −TΔS: calculated from ΔG and ΔH (Eq. 2); for ΔH: normalised on reverse titrations; for ΔCp: heat capacity change on binding from ΔH at 20 °C and 37 °C (Eq. 3)
# [1] = 20 °C, bicyclic peptide minus its monocyclic counterpart
# [2] = 37 °C, bicyclic peptide minus its monocyclic counterpart
# [3] = bicyclic peptide minus its monocyclic counterpart
# [4] = 20 °C, monocyclic peptide minus peptide 4 (pairs 1–4, 3–4)
# [5] = 37 °C, monocyclic peptide minus peptide 4 (pairs 1–4, 3–4)
# [6] = 20 °C, peptide 2 minus peptide 1 (pair 2–1)
# [7] = 20 °C, peptide 2 minus peptide 3 (pair 2–3)
# [8] = 37 °C, peptide 2 minus peptide 1 (pair 2–1)
# [9] = 37 °C, peptide 2 minus peptide 3 (pair 2–3)
Structure (SMILES),Δ(ΔH 20 °C) [1] [kcal⋅mol^−1],Δ(‐TΔS) 20 °C [1] [kcal⋅mol^−1],Δ(ΔH 37 °C) [2] [kcal⋅mol^−1],Δ(‐TΔS) 37 °C [2] [kcal⋅mol^−1],ΔG (20 °C),−TΔS (20 °C),ΔH (20 °C),ΔG (37 °C),−TΔS (37 °C),ΔH (37 °C),ΔCp,Δ(ΔCp) [3] [kcal⋅mol^−1.K^−1],other results
CCCC[C@@H]1NC(=O)[C@H](C(C)C)NC(=O)[C@H](Cc2c[nH]cn2)NC(=O)[C@H]([C@@H](C)CC)NC(=O)[C@H](CC(=O)O)NC(=O)[C@@H](N)CSSC[C@@H]2NC(=O)[C@H](CCC(=O)NCCCC[C@@H](C(=O)N[C@@H](CC(C)C)C(N)=O)NC(=O)[C@H](CCC(=O)O)NC(=O)[C@H](Cc3ccccc3)NC2=O)NC(=O)[C@H](Cc2c[nH]c3ccccc23)NC(=O)[C@H](CCC(=O)O)NC(=O)[C@H](Cc2c[nH]c3ccccc23)NC1=O [3 c],1.2±0.7,−1.6±0.8,0.6±0.6,−1.1±0.7,−.89 [−10.01; −9.78] kcal⋅mol^−1,6.1 [5.6; 6.5] kcal⋅mol^−1,−16.0 [−16.3; −15.6] kcal⋅mol^−1,−9.61 [−9.71; −9.52] kcal⋅mol^−1,12.8 [12.3; 13.2] kcal⋅mol^−1,−22.4 [−22.8; −22.0] kcal⋅mol^−1,−0.38 [−0.41; −0.35] kcal⋅mol^−1.K^−1,−0.04±0.05,–
CCCC[C@@H]1NC(=O)[C@H](C(C)C)NC(=O)[C@H](Cc2c[nH]cn2)NC(=O)[C@H]([C@@H](C)CC)NC(=O)[C@H](CC(=O)O)NC(=O)[C@@H](N)CSSC[C@@H]2NC(=O)[C@H](CCCCNC(=O)CC[C@@H](C(=O)N[C@@H](CC(C)C)C(N)=O)NC(=O)[C@H](CCC(=O)O)NC(=O)[C@H](Cc3ccccc3)NC2=O)NC(=O)[C@H](Cc2c[nH]c3ccccc23)NC(=O)[C@H](CCC(=O)O)NC(=O)[C@H](Cc2c[nH]c3ccccc23)NC1=O [4 c] (H-CDIHV[Nle]WEWKCFEEL-NH2; disulfide 1-11; lactam 10-14),1.4±0.7,−1.3±0.9,0.8±1.2,−0.8±1.3,−9.16 [−9.27; −9.05] kcal⋅mol^−1,6.8 [6.1; 7.6] kcal⋅mol^−1,−16.0 [−16.6; −15.4] kcal⋅mol^−1,−8.68 [−8.79; −8.56] kcal⋅mol^−1,13.5 [12.5; 14.7] kcal⋅mol^−1,−22.2 [−23.2; −21.3] kcal⋅mol^−1,−0.37 [−0.43; −0.31] kcal⋅mol^−1.K^−1,−0.04±0.08,"Δ(ΔG 20 °C) (20 °C, bicyclic peptide minus its monocyclic counterpart (1 c–1, 2 c–2, 3 c–3, 4 c–4)): 0.06±0.12 kcal⋅mol^−1; Δ(ΔG 37 °C) [2]: 0.04±0.14 kcal⋅mol^−1"
CCCC[C@@H]1NC(=O)[C@H](C(C)C)NC(=O)[C@H](Cc2c[nH]cn2)NC(=O)[C@H]([C@@H](C)CC)NC(=O)[C@H](CC(=O)O)NC(=O)[C@@H](N)CSSC[C@@H](C(=O)N[C@@H](Cc2ccccc2)C(=O)N[C@@H](CCC(=O)O)C(=O)N[C@@H](CC(=O)O)C(=O)N[C@@H](CC(C)C)C(N)=O)NC(=O)[C@H](CCCCN)NC(=O)[C@H](Cc2c[nH]c3ccccc23)NC(=O)[C@H](CCC(=O)O)NC(=O)[C@H](Cc2c[nH]c3ccccc23)NC1=O [compound 1] (H-CDIHV[Nle]WEWKCFEDL-NH2; disulfide 1-11),–,–,–,–,−9.05 [−9.15; −8.97] kcal⋅mol^−1,8.7 [8.2; 9.3] kcal⋅mol^−1,–,−8.51 [−8.56; −8.46] kcal⋅mol^−1,14.2 [13.8; 14.7] kcal⋅mol^−1,−22.8 [−23.1; −22.4] kcal⋅mol^−1,−0.29 [−0.32; −0.26] kcal⋅mol^−1.K^−1,–,"Δ(ΔG 20 °C) [4]: 0.2 ± 0.1 kcal⋅mol^−1 and 0.16±0.10 kcal⋅mol^−1; Δ(ΔH 20 °C) [4]: -0.4 ± 0.6 kcal⋅mol^−1; Δ(‐TΔS) 20 °C [4]: 0.6 ± 0.7 kcal⋅mol^−1; Δ(ΔG 37 °C) [5]: 0.2 ± 0.1 kcal⋅mol^−1 and 0.20±0.09 kcal⋅mol^−1; Δ(ΔH 37 °C) [5]: 0.2 ± 0.8 kcal⋅mol^−1; Δ(‐TΔS) 37 °C [5]: 0.0 ± 1.0 kcal⋅mol^−1; Δ(ΔCp) (monocyclic peptide minus peptide 4 (pairs 1–4, 3–4)): 0.04±0.06 kcal⋅mol^−1.K^−1"
CCCC[C@@H]1NC(=O)[C@H](C(C)C)NC(=O)[C@H](Cc2c[nH]cn2)NC(=O)[C@H]([C@@H](C)CC)NC(=O)[C@H](CC(=O)O)NC(=O)[C@@H](N)CSSC[C@@H](C(=O)N[C@@H](Cc2ccccc2)C(=O)N[C@@H](CCC(=O)O)C(=O)N[C@@H](CCCCN)C(=O)N[C@@H](CC(C)C)C(N)=O)NC(=O)[C@H](CC(=O)O)NC(=O)[C@H](Cc2c[nH]c3ccccc23)NC(=O)[C@H](CCC(=O)O)NC(=O)[C@H](Cc2c[nH]c3ccccc23)NC1=O [compound 2],–,–,–,–,−9.13 [−9.21; −9.05] kcal⋅mol^−1,6.7 [6.3; 7.1] kcal⋅mol^−1,–,−8.76 [−8.82; −8.70] kcal⋅mol^−1,13.3 [12.7; 13.9] kcal⋅mol^−1,−22.0 [−22.6; −21.5] kcal⋅mol^−1,−0.36 [−0.40; −0.32] kcal⋅mol^−1.K^−1,–,Δ(ΔG 20 °C) [6]: −0.08±0.12 kcal⋅mol^−1; Δ(ΔH 20 °C) [6]: 2.0 ± 0.6 kcal⋅mol^−1; Δ(ΔG 20 °C) [7]: 0.3 ± 0.2 kcal⋅mol^−1 and 0.33±0.12 kcal⋅mol^−1; Δ(ΔH 20 °C) [7]: 1.4 ± 0.6 kcal⋅mol^−1; Δ(‐TΔS) 20 °C [7]: -1.0 kcal⋅mol^−1 and −1.0±0.8 kcal⋅mol^−1; Δ(ΔG 37 °C) [8]: −0.25±0.08 kcal⋅mol^−1; Δ(ΔH 37 °C) [8]: 0.7 ± 0.7 kcal⋅mol^−1; Δ(‐TΔS) 37 °C [8]: -1.0 ± 0.8 kcal⋅mol^−1; Δ(ΔG 37 °C) [9]: 0.3 ± 0.1 kcal⋅mol^−1 and 0.34±0.08 kcal⋅mol^−1; Δ(ΔH 37 °C) [9]: 1.0 ± 0.7 kcal⋅mol^−1; Δ(‐TΔS) 37 °C [9]: -0.6 ± 0.8 kcal⋅mol^−1; Δ(ΔCp) (peptide 2 minus peptide 1 (pair 2–1)): −0.07±0.05 kcal⋅mol^−1.K^−1; Δ(ΔCp) (peptide 2 minus peptide 3 (pair 2–3)): −0.02±0.05 kcal⋅mol^−1.K^−1
CCCC[C@@H]1NC(=O)[C@H](C(C)C)NC(=O)[C@H](Cc2c[nH]cn2)NC(=O)[C@H]([C@@H](C)CC)NC(=O)[C@H](CC(=O)O)NC(=O)[C@@H](N)CSSC[C@@H](C(=O)N[C@@H](Cc2ccccc2)C(=O)N[C@@H](CCC(=O)O)C(=O)N[C@@H](CCC(=O)O)C(=O)N[C@@H](CC(C)C)C(N)=O)NC(=O)[C@H](CCCCN)NC(=O)[C@H](Cc2c[nH]c3ccccc23)NC(=O)[C@H](CCC(=O)O)NC(=O)[C@H](Cc2c[nH]c3ccccc23)NC1=O [compound 4] (H-CDIHV[Nle]WEWKCFEEL-NH2; disulfide 1-11),–,–,–,–,−9.22 [−9.27; −9.16] kcal⋅mol^−1,8.2 [7.8; 8.5] kcal⋅mol^−1,−17.4 [−17.7; −17.1] kcal⋅mol^−1,−8.71 [−8.80; −8.63] kcal⋅mol^−1,14.3 [13.5; 15.1] kcal⋅mol^−1,−23.0 [−23.7; −22.3] kcal⋅mol^−1,−0.33 [−0.38; −0.28] kcal⋅mol^−1.K^−1,–,–
